# Paper PMC7610864, “The Roles of Type 2 Cytotoxic T Cells in Inflammation, Tissue Remodeling, and Prostaglandin (PG) D2 Production Are Attenuated by PGD2 Receptor 2 Antagonism” (The Journal of Immunology Author Choice, 2021)
# Target: T1, PGD2 receptor 2 (DP2) (Homo sapiens, UniProt Q9Y5Y4)
# T1 construct: gene PTGDR2
# T1 sequence (Q9Y5Y4 1-395): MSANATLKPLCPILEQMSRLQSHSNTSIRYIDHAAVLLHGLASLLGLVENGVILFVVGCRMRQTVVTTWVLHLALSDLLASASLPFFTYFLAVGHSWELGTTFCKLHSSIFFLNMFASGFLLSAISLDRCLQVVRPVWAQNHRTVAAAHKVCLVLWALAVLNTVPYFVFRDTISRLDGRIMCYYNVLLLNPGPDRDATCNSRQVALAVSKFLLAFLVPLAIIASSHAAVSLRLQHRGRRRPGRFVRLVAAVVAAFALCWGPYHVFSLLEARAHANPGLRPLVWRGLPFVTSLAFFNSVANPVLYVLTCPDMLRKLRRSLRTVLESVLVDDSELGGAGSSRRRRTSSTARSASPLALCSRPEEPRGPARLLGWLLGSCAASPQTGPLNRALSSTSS
smiles,measurement,value
Cc1c(CC(=O)O)c2cccnc2n1Cc1ccc(S(C)(=O)=O)cc1C(F)(F)F [fevipiprant],IC50,3.5 ± 3.6 nM
